Assays:
[1] = tested on: primary CLL cells (CD5+CD19+ tumor cells); experiment: Ex vivo apoptosis of B-cell CLL patient cells, Compound 1 with venetoclax (flow cytometry, Caspase 3); format: cell-based, human; details: 144 hrs
Experimental: CLL is characterized by accumulation of clonal CD5^+CD19^+ lymphocytes resistant to apoptosis. Venetoclax blocks the anti-apoptotic B-cell lymphoma-2 (Bcl-2) protein, leading to programmed cell death of CLL cells and is currently being tested in the clinic with different combinations for relapsed refractory patients. The effect of Compound 1 in combination with venetoclax on the proliferation and survival of CLL B cells was assessed utilizing an ex vivo model where primary CLL cells from patient-derived blood were stimulated to proliferate with 10% fetal bovine serum (FBS), 5 ng/mL recombinant human interleukine-4 (rh IL-4), 10 ng/mL recombinant human interleukine-10 (rh IL-10) and co-cultured with fibroblast expressing surface CD154 (CD40L) in a 96 well plate format.
Peripheral blood mononuclear cells (PBMCs) from CLL patients (Table 6) containing 52%-86% of CD5^+CD19^+ tumor cells were cultured at a density of 0.06-0.1×10^6 cells/well on a monolayer of CD154-expressing fibroblasts at a density of 0.09×10^6 cells/well in 96-well plates in RPMI 1640 medium supplemented with 10% FBS, 5 ng/mL rh IL-4 and 10 ng/mL rh IL-10 and were simultaneously treated with vehicle control (0.1% DMSO) or increasing concentrations of Compound 1 ranging from 0.0001 to 1 μM and venetoclax at concentrations ranging from 0.001 to 10 μM across all the different concentrations of Compound 1. After 144 hrs of treatment with both the agents, flow cytometric analysis was used to determine the number of tumor cells that were viable or apoptotic.
After 6 days of treatment, the tumor cell count was assessed by staining the patient PBMCs in each condition with tumor cell surface markers CD5 & CD19 along with Live/Dead fixable dye to exclude the dead cells and followed by intracellular staining for Caspase 3 antibody to identify the apoptotic cells and was measured by flow cytometry (Attune NxT, Thermo Fisher). The live tumor cell count for each condition was calculated by normalizing to the precision count beads added to each sample.
For apoptosis analysis, the percentage of apoptosis combining both “early” (Caspase 3 positive and Live-Dead fixable dye negative) and “late” apoptosis (Caspase 3 and Live-Dead fixable dye positive) cell gates subtracting the baseline DMSO value was graphed using GraphPad Prism 8.0.0.0. The Ymax (maximal percentage of apoptosis achieved) values from apoptosis curves were calculated by performing a nonlinear regression curve fitting using log(agonist) vs. normalized response—Variable slope analysis and identifying the maximum value on GraphPad Prism 8.0.0 (Table 7).

[2] = tested on: WSU-DLCL2 DLBCL xenograft tumors; experiment: WSU-DLCL2 (DLBCL) xenograft model, Compound 1 alone and with 5-azacytidine; format: in vivo, female SCID mice
Experimental: Anti-tumor activity of Compound 1 alone and in combination with 5-azacytidine was studies in WSU-DLCL2 (DLBCL) xenograft model. Compound 1 (1 mg/kg) was administered once daily for 5 consecutive days followed by 2 days off (5 D on/2 D off) and 5-azacytidine (1 mg/kg) was administered once daily (QD). Compound 1 (1 mg/kg, 5 D on/2 D off) and 5-azacytidine (1 mg/kg, QD) inhibited WSU-DLCL2 DLBCL tumor growth.
Methods: Xenograft study was conducted with female SCID mice bearing WSU-DLCL2 DLBCL xenograft tumors. Female SCID mice were inoculated subcutaneously with WSU-DLCL2 cells in the flank region above the right hind leg. Following inoculation of animals, the tumors were allowed to grow to approximately 200 mm^3 prior to randomization. On day 14 following tumor cell inoculation, the mice bearing WSU-DLCL2 tumors ranging between 150 and 250 mm^3 were pooled together and randomized into various treatment groups. Compound 1 was formulated in 0.5% Methyl Cellulose, 0.25% Tween 80 and 50 mM Citrate pH 3 in water. 5-Azacytidine was formulated in 0.9% saline. Compound 1 (1 mg/kg) was orally administered with three cycles of once daily for 5 consecutive days followed by 2 days off starting from day 14 after tumor cell inoculation. […] Tumors were measured twice a week using calipers and tumor volumes were calculated using the formula of W^2×L/2. […]

[3] = DMSO + Cpd1 DRC (no venetoclax)

O=C1CC[C@H](N2C(=O)c3cccc(NCc4ccc(CN5CC(N6CCOCC6)C5)cc4F)c3C2=O)C(=O)N1 [Compound 1, (S)-2-(2,6-dioxopiperidin-3-yl)-4-((2-fluoro-4-((3-morpholinoazetidin-1-yl)methyl)benzyl)amino)isoindoline-1,3-dione]
Ymax of Pt 11 (%), maximal apoptosis [1, 3]: 12.42% | Ymax of Pt 12 (%), maximal apoptosis [1, 3]: 14.64% | Ymax of Pt 13 (%), maximal apoptosis [1, 3]: 27.00% | Ymax of Pt 14 (%), maximal apoptosis [1, 3]: 13.32% | Ymax of Pt 11 (%), maximal apoptosis ([1]; venetoclax 0.001 uM + Cpd1 DRC): 17.79% | Ymax of Pt 12 (%), maximal apoptosis ([1]; venetoclax 0.001 uM + Cpd1 DRC): 24.85% | Ymax of Pt 13 (%), maximal apoptosis ([1]; venetoclax 0.001 uM + Cpd1 DRC): 33.09% | Ymax of Pt 14 (%), maximal apoptosis ([1]; venetoclax 0.001 uM + Cpd1 DRC): 17.39% | Ymax of Pt 11 (%), maximal apoptosis ([1]; venetoclax 0.01 uM + Cpd1 DRC): 38.49% | Ymax of Pt 12 (%), maximal apoptosis ([1]; venetoclax 0.01 uM + Cpd1 DRC): 34.24% | Ymax of Pt 13 (%), maximal apoptosis ([1]; venetoclax 0.01 uM + Cpd1 DRC): 49.03% | Ymax of Pt 14 (%), maximal apoptosis ([1]; venetoclax 0.01 uM + Cpd1 DRC): 27.33% | Ymax of Pt 11 (%), maximal apoptosis ([1]; venetoclax 0.1 uM + Cpd1 DRC): 58.37% | Ymax of Pt 12 (%), maximal apoptosis ([1]; venetoclax 0.1 uM + Cpd1 DRC): 45.34% | Ymax of Pt 13 (%), maximal apoptosis ([1]; venetoclax 0.1 uM + Cpd1 DRC): 52.16% | Ymax of Pt 14 (%), maximal apoptosis ([1]; venetoclax 0.1 uM + Cpd1 DRC): 31.44% | Ymax of Pt 11 (%), maximal apoptosis ([1]; venetoclax 1 uM + Cpd1 DRC): 66.55% | Ymax of Pt 12 (%), maximal apoptosis ([1]; venetoclax 1 uM + Cpd1 DRC): 48.71% | Ymax of Pt 13 (%), maximal apoptosis ([1]; venetoclax 1 uM + Cpd1 DRC): 55.23% | Ymax of Pt 14 (%), maximal apoptosis ([1]; venetoclax 1 uM + Cpd1 DRC): 40.57% | Ymax of Pt 11 (%), maximal apoptosis ([1]; venetoclax 10 uM + Cpd1 DRC): 72.34% | Ymax of Pt 12 (%), maximal apoptosis ([1]; venetoclax 10 uM + Cpd1 DRC): 54.25% | Ymax of Pt 13 (%), maximal apoptosis ([1]; venetoclax 10 uM + Cpd1 DRC): 60.52% | Ymax of Pt 14 (%), maximal apoptosis ([1]; venetoclax 10 uM + Cpd1 DRC): 45.98% | combination antitumor activity (fractional product method) ([2]; Compound 1 1 mg/kg and 5-azacytidine 1 mg/kg): synergistic | tumor volume reduction compared to vehicle control ([2]; Compound 1 1 mg/kg in combination with 5-azacytidine 1 mg/kg): 74%

From patent publication US12396995B2, “Substituted 4-aminoisoindoline-1,3-dione compounds and second active agents for combined use” (Celgene Corporation, priority 2019, dated 2025)
